ChEMBL document CHEMBL1132685, “Nonpeptide glycoprotein IIB/IIIA inhibitors. 19. A new design paradigm employing linearly minimized, centrally constrained, exosite inhibitors” (Bioorg Med Chem Lett, 1999)

Target: Integrin alpha-IIb/beta-3 (Homo sapiens, UniProt P05106+P08514)
Experiment: Inhibition of glycoprotein IIb/III integrin mediated fibrinogen binding to activated platelets
Assay type: functional

Integrin alpha-IIb/beta-3, sequence (P05106 27-788 limits assumed): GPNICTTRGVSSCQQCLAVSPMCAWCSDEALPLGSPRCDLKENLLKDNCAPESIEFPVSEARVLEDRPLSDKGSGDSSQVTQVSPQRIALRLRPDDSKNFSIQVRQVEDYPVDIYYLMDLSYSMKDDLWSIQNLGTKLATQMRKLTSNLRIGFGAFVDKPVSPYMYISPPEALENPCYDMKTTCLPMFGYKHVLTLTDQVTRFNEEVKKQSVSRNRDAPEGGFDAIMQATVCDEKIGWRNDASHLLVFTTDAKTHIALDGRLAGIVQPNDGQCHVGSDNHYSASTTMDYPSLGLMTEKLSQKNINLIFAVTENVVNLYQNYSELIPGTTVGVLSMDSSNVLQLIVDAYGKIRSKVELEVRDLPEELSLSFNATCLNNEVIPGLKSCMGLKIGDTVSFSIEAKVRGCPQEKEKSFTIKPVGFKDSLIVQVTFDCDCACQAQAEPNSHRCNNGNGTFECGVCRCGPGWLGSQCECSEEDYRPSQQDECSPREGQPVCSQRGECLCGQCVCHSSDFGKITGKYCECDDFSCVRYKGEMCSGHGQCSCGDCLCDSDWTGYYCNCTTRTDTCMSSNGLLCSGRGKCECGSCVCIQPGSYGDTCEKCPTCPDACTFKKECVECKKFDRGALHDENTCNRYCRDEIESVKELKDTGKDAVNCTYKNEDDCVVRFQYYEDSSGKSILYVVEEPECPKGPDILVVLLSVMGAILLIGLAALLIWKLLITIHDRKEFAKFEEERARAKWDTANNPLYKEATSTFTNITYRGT
Integrin alpha-IIb/beta-3, sequence (P08514 32-887 limits assumed): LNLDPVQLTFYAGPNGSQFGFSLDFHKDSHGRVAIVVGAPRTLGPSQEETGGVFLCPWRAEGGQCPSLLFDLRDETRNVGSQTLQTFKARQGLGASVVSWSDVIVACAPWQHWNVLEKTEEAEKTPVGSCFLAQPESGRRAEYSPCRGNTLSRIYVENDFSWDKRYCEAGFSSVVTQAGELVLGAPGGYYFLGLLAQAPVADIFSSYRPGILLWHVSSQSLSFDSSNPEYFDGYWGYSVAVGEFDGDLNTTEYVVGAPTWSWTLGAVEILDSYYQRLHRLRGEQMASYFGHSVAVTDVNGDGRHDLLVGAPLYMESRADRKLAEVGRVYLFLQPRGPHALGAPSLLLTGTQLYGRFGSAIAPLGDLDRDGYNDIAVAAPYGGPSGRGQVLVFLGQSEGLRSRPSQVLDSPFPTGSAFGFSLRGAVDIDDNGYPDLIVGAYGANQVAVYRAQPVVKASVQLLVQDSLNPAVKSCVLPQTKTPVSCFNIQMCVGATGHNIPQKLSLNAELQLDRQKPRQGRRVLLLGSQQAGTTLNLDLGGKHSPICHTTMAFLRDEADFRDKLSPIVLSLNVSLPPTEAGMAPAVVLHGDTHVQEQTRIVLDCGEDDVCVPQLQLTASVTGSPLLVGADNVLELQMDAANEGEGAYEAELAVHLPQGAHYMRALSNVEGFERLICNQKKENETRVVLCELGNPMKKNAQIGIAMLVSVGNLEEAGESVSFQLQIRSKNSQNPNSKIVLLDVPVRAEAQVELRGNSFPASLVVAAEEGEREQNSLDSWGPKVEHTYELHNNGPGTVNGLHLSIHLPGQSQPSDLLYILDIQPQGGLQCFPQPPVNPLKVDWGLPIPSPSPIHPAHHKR
Integrin alpha-IIb/beta-3, sequence (P08514 891-1039 limits assumed): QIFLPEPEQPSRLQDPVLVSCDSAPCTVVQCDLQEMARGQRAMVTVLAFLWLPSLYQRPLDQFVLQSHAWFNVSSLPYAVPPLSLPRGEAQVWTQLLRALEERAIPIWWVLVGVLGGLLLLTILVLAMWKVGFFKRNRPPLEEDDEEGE

IC50	Compound
9200 nM	NCCOc1cccc(C(=O)NC[C@H](NS(=O)(=O)c2ccccc2)C(=O)O)c1
230000 nM	O=C(O)CCNC(=O)c1ccc(N2CCNCC2)cc1
29000 nM	NCCCCC(=O)NCC(=O)NC[C@@H](NS(=O)(=O)c1ccccc1)C(=O)O
380 nM	NCCCCCCC(=O)NCC(=O)NC[C@@H](NS(=O)(=O)c1ccccc1)C(=O)O
130 nM	O=C(NC[C@H](NS(=O)(=O)c1ccccc1)C(=O)O)c1ccc(CCC2CCCCN2)cc1 (some centres undefined)
13 nM	NCCCCCOc1ccc(C(=O)NC[C@H](NS(=O)(=O)c2ccccc2)C(=O)O)cc1
34 nM	O=C(NC[C@H](NS(=O)(=O)c1ccccc1)C(=O)O)c1ccc(CN2CCNCC2)cc1
> 30000 nM	NCCCC(=O)NCC(=O)NC[C@@H](NS(=O)(=O)c1ccccc1)C(=O)O
23 nM	NCCCCOc1ccc(C(=O)NC[C@H](NS(=O)(=O)c2ccccc2)C(=O)O)cc1
270 nM	NCCCc1ccc(C(=O)NC[C@H](NS(=O)(=O)c2ccccc2)C(=O)O)cc1
2800 nM	NCCCCCC(=O)NCC(=O)NC[C@@H](NS(=O)(=O)c1ccccc1)C(=O)O
4900 nM	NCCc1ccc(C(=O)NC[C@H](NS(=O)(=O)c2ccccc2)C(=O)O)cc1
55 nM	NCCCOc1ccc(C(=O)NC[C@H](NS(=O)(=O)c2ccccc2)C(=O)O)cc1
110 nM	NCCOc1ccc(C(=O)NC[C@H](NS(=O)(=O)c2ccccc2)C(=O)O)cc1
